Among the data in patent publication EP4385979A1 (Grünenthal GmbH, priority 2022, dated 2024) are IC50 values, retold here.

The experiment has as its target T1, human NaV1.8 (Homo sapiens, UniProt Q9Y5Y9).
T1 construct: expressed in transfected cells; host or cells: HEK
In words: Electrophysiology: voltage-clamp recordings, whole-cell patch clamp on Qube384 automated platform. The experiment is classed as cell-based. The following applies: HEK-NaV1.8 (NM 006514.1) with b3 recombinant cell line, multi hole plates, ambient room temperature, read-out: Potency category (human NaV1.8 IC50). How it is done:
Electrophysiology: Voltage-Clamp recordings
The following NaV1.8 recombinant cell line was used for recordings: HEK-NaV1.8 (NM 006514.1) with b3 (NM_018400.3).
Sodium currents were measured using the patch clamp technique in the whole-cell configuration using the Qube384 (Sophion A/S, Copenhagen, Denmark) automated voltage clamp platform. "Multi hole" plates were used for the cell line expressing NaV1.8 while "single hole" plates were used for the recombinant cell lines expressing the other subtypes. Appropriate filters (for minimum seal resistance and minimum current size) and series resistance compensation (for high quality sodium channel recordings) were applied. Data was collected at ambient room temperature.
The recording […] solution contained (in mM): NaCl 145 mM, KCl 4 mM, CaCl2 2 mM, MgCl2 1 mM, HEPES 10 mM, Glucose 10 mM, pH 7.4 (NaOH). The […] recording solution contained (in mM): CsF 120 mM, CsCl 20 mM, NaCl 10 mM, EGTA 10 mM, HEPES 10 mM, pH 7.2 (CsOH). Currents were recorded at 25 kHz sampling frequency and filtered at 5 kHz. Series resistance compensation was applied at 65%.
Vehicle (VEH) is the control condition where cells are exposed to 0.3 % DMSO without compound. All runs include VEH controls being exposed to the same voltage protocols to assess non-compound related phenomena such as run down and then used to isolate compound dependent effects on currents.
To check for state-dependence inhibition, the following voltage-sequence was applied every 20 seconds: From a resting membrane potential of-120 mV, the first test pulse (P1; 20 ms to -10 mV) was applied to check for channels in the Resting State followed by a brief recovery (20 ms to -120 mV), then holding the membrane voltage to V1/2 (4 seconds at voltage to obtain half the channel at Rest and half Inactivated) with a subsequent second test pulse (P2; 20 ms to -10 mV) to check for channels in the Inactivated State, followed by another brief recovery (20 ms to -120 mV) and a final third test pulse (P3; 20 ms to -10 mV) to check for recovered channels.
To check for frequency-dependent inhibition, a 10 Hz protocol and a 20 Hz protocol were applied; namely,
From a resting membrane potential of -120 mV, 40-pulses (10 ms to -10 mV) was applied at 10 Hz (at 100 ms between pulses) and then at 20 Hz (at 50 ms between pulses). Each parameter was recorded (P1, P2, P3, P40 from 10Hz and P40 from 20Hz) during a control period (lasting ~ 5 minutes) when establishing the baseline and during compound period (lasting ~ 12 minutes) when test compound (or vehicle) was applied. For each parameter, the value at the end of the compound period was normalized to the vehicle baseline; as follows Normalized Inhibition (NormCPD) = (CPD Valueend CPD period)/(VEH Valueend Control Period) [formula]
To adjust for any variance in the Na^+ current signal during the compound period (owing to cumulative inactivation independent of compound or shifts in biophysics over time), a dedicated segment of the recording wells in each 384 plate were dedicated to having only vehicle exposure. These vehicle-only recordings were used to correct for any apparent "run-up" or "run-down" in the experiment. Normalized Inhibition (NormVEH) = (VEH Valueend CPD period)/(VEH Valueend Control Period) [formula]
The adjusted inhibition was calculated as follows: % Inhibitioncorrected = 100 × (NormCPD −NormVEH)/(100−NormVEH) [formula]
Percent inhibition was determined and IC50 values were calculated using a 4 parameter logistic model within XLFit Software (IDBS, Boston MA): % Inhibitioncorrected = A + ((B−A))/((1 + (((x)/(C)))^D) [formula] where A and B are the maximal and minimum inhibition respectively, C is the IC50 concentration and D is the (Hill) slope.
In general terms: The patch-clamp technique gives a direct electrical read-out from membranes.

pIC50: −log10 of the molar value.

T1 sequence (Q9Y5Y9 whole entry): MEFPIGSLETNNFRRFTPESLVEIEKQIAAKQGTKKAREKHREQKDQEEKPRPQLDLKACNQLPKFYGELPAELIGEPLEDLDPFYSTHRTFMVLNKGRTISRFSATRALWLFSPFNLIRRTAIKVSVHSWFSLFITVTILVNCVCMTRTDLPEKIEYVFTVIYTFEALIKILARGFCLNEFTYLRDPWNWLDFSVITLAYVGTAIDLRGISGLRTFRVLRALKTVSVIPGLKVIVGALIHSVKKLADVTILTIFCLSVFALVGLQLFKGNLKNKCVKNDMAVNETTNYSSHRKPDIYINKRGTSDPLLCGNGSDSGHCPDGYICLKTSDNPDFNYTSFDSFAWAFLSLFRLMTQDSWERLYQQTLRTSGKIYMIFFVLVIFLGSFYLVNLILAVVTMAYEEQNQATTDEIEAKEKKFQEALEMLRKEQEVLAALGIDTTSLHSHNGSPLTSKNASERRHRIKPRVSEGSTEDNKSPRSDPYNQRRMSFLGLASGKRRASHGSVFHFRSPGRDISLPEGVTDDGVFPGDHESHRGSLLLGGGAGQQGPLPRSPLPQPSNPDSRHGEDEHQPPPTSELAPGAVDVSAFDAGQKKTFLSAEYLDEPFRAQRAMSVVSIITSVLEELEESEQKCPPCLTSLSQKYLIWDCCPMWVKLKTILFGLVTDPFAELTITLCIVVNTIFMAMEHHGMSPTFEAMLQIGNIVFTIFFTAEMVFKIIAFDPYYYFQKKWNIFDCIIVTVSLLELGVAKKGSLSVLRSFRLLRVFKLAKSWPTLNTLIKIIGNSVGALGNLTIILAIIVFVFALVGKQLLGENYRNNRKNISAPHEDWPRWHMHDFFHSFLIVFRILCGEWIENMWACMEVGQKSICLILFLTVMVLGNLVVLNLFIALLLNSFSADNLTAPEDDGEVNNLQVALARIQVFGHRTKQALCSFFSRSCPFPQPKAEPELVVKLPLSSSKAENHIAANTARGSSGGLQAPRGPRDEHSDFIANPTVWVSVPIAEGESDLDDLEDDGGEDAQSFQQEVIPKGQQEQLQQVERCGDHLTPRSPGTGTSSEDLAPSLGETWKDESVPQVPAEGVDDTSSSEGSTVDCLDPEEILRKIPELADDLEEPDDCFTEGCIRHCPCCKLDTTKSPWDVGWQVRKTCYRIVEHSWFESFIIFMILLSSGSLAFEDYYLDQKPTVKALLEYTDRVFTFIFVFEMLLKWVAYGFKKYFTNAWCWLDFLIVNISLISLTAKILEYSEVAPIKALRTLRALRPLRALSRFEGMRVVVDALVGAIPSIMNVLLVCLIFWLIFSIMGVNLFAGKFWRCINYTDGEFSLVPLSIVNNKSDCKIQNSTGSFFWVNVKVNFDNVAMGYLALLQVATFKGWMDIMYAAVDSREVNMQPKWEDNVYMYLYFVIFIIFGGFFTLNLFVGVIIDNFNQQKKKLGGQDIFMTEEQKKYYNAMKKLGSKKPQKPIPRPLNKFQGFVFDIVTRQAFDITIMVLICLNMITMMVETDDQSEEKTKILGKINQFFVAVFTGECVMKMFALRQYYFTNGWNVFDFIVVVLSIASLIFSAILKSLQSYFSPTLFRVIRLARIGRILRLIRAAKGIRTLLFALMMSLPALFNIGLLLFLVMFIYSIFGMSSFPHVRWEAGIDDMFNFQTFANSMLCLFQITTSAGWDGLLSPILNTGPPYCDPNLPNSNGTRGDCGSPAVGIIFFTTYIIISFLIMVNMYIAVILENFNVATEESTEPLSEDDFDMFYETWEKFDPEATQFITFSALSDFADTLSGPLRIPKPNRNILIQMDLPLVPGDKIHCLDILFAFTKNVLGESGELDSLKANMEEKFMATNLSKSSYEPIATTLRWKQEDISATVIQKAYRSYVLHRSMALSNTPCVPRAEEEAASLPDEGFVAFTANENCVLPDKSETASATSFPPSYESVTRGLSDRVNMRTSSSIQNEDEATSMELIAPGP

Regarding `CS(=O)(=O)n1cc(NC(=O)c2c(C(F)(F)F)cnn2CC23CCC(C2)C3)cn1` [Example 49, 1-(bicyclo[2.1.1]hexan-1ylmethyl)-N-(1-(methylsulfonyl)-1H-pyrazol-4-yl)-4-(trifluoromethyl)-1H-pyrazole-5-carboxamide], the pIC50 (as a rule, the IC50 on a negative log10 scale, so that one unit is a factor of ten) is 6.00 to 7.00.
